Key:
LRRK2 G2019S enzyme = LRRK2 G2019S enzyme (Homo sapiens, UniProt Q5S007, G2019S); experiment: LRRK2 G2019S TR-FRET biochemical assay (Biological Example 1); conditions: 134 μM ATP, 5 nM LRRK2, LRRKtide substrate
Experimental: • LRRK2 G2019S enzyme • Substrate (LRRKtide) • ATP • TR-FRET dilution buffer • pLRRKtide antibody • 384-well assay plate • DMSO Enzyme Reaction Conditions • 50 mM Tris pH 7.5, 10 mM MgCl2, 1 mM EGTA, 0.01% Brij-35, 2 mM DTT • 5 nM LRRK2 • 134 μM ATP • 60 minute reaction time • 23° C. reaction temperature • 10 μL total reaction volume Detection Reaction Conditions • 1×TR-FRET dilution buffer • 10 mM EDTA • 2 nM antibody • 23° C. reaction temperature • 10 μL total reaction volume
Compounds are prepared by initially diluting to 1 mM with DMSO. 35 μL of reference compound solution, 35 μL of test compound solution, and 35 μL HPE are successively added to the source plate (384-well assay plate, Labcyte). The plates are centrifuged at 2500 rpm for 1 minute and sealed in foil. POD is used to perform a 3.162 fold serial dilution and 100 nL of reference compound solution, test compound solution, HPE and ZPE are transferred to assay plates. The assay plate is centrifuged at 2500 rpm for 1 minute, and sealed with foil.
To perform the enzyme reaction, 5 μL of LRRKtide substrate and kinase mixture in assay buffer is added to all wells of the assay plate. The plate is centrifuged to concentrate the mixture at the bottom of the wells. The assay plate is incubated at 23° C. for 20 minutes. Following incubation, 5 μL of 2×ATP in assay buffer is added to each well, and plates are centrifuged to concentrate the mixture at the bottom of the wells. The plate is incubated at 23° C. for 60 minutes.
To perform the detection of the reaction, EDTA completely mixed in TR-FRET dilution buffer is added to antibody reagent. 10 μL of detection reagent is added to all wells of each well of the assay plate and the plate is centrifuged to concentrate the mixture at the bottom of the wells. The plate is then incubated at 23° C. for 60 minutes. Plates are read on Perkin Elmer Envision 2104 instrument in TR-FRET mode using a 340 nm excitation filter, 520 nm fluorescence emission filter, and 490 or 495 nm terbium emission filter.

[1] = target: T1, FLAG-tagged human LRRK2 with G2019S mutation (Homo sapiens, UniProt Q5S007, G2019S); experiment: Inhibition of pSer935 in HEK293 cells with expressed G2019S LRRK2 (Biological Example 4); assay type: cell-based; conditions: transfected 293T cells, 90 minutes compound treatment, MSD readout; read-out: HEK293T LRRK2 G2019S pS935
T1 construct: expressed in transfected cells; host or cells: HEK293 / 293T cells, transient transfection with pCMV-FLAG-G2019S
Experimental: In this assay, inhibition of phosphorylation of LRRK2 at residue serine 935 (pS935) by test compound was determined in HEK293 cells.
HEK293 cells were first transiently transfected with a plasmid harboring FLAG-tagged human LRRK2 cDNA with G2019S mutation (p.G2019S) under the control of CMV promoter for robust overexpression. The levels of phosphorylated Ser935 in G2019S expressing cells with or without compound treatment were measured by MSD using an anti-FLAG capture antibody and a phosho-specific anti-LRRK2 pS935 monoclonal detection antibody. The IC50 was determined by fitting a 10-point dose response data in duplicate with four parameter non-linear regression curve.
(Day 1) 293T cell seeding: 293T cells were seeded (1.4×10^6/well) into each well of a 6-well plate. After two days in culture, the cell number can grow into 5×10^6/well, so N+1 wells were seeded (enough for N 96 well assay plates).
(Day 2) 293T cell transfection: 5 μL of pCMV-FLAG-G2019S or pCMV-FLAG-WT LRRK2 (0.5 μg/μL) was added into 145 μL of DMEM medium, and mixed thoroughly by pipette up and down several times. 15 μL of SuperFect Transfection Reagent was added into samples, mixed thoroughly by pipetting up and down several times, and allowed to equilibrate at room temperature for 5-10 minutes. 0.5 mL of pre-warmed cell culture medium was added into samples, and mixed thoroughly by pipetting up and down several times. 650 μL of the mixture was added dropwise into each well of the 6 well plate, the plate was swirled to mix thoroughly, and incubated in a 37° C. incubator with a humidified atmosphere of 5% CO2 for 20-24 hours.
(Day 3) 293T cells seed into 96 well plates: Cells were harvested and resuspended in cell culture medium at 0.96×10^6 cells/mL density. 50 μL/well cells were plated onto 96-well cell culture plate (48,000 cells/well), and the plates were incubated in a 37° C. incubator with a humidified atmosphere of 5% CO2 for 20-24 hours.
(Day 4) Inhibitor Treatment and Cell Lysis: The compound destination plates were thawed at room temperature and centrifuged at 2000 rpm. 55 μL cell culture medium was added into compound destination plate, and the plate was warmed at 37° C.
50 μL of cell culture medium containing compounds was transferred into cell culture plate. Plates were incubated in a 37° C. incubator with a humidified atmosphere of 5% CO2 for 90 minutes, after which all of compound-containing medium was completely aspirated manually with 300 μL pipette. 100 μL/well of Lysis Buffer was added and the plates sealed, shaken at 4° C. for 30 minutes, and stored at −20° C. until usage.
(Day 5) MSD procedure: 2 μg/25 μL/well of FLAG antibody diluted in PBS was added into the MSD plate, incubated for two hours at room temperature or overnight at 4° C. (in Day 4). 50 μL (3.9 μg/μL) of FLAG antibody plus 2.5 mL PBS, per 96 well plate, or 50 μL (3.9 μg/μL) anti-FLAG antibody plus 5 mL PBS per 384 well plate. The plates were centrifuged at 1000 rpm for 10 seconds and shaken with a plate shaker for 10 seconds.
Anti-FLAG antibody was discarded, and the wells were washed using multidrop, low speed, two times with 300 μL/well of wash buffer for a 96 well plate or three times with 70 μL/well of wash buffer for a 384 well plate. 50 μL/well of block buffer for a 96 well plate, or 25 μL/well of block buffer for a 384 well plate, was added and the plates were incubated for two hours at room temperature. The Block buffer was then discarded and the wells washed two times using multidrop, low speed, with 300 μL/well of wash buffer for a 96 well plate, or three times with 70 μL/well of wash buffer for a 384 well plate.
25 μL of cell lysate was transferred into a 96 well MSD plate, or 12.5 μL of cell lysate into 384 well MSD plate, and the plates were incubated for one hour at room temperature.
Note: The cell lysate should be thawed one hour prior to this step, the plate centrifuged at 1000 rpm for one minute, shaken for 30 seconds, and then unsealed for lysate transfer. […]

Chain of LRRK2 G2019S enzyme (Q5S007 whole entry G2019S): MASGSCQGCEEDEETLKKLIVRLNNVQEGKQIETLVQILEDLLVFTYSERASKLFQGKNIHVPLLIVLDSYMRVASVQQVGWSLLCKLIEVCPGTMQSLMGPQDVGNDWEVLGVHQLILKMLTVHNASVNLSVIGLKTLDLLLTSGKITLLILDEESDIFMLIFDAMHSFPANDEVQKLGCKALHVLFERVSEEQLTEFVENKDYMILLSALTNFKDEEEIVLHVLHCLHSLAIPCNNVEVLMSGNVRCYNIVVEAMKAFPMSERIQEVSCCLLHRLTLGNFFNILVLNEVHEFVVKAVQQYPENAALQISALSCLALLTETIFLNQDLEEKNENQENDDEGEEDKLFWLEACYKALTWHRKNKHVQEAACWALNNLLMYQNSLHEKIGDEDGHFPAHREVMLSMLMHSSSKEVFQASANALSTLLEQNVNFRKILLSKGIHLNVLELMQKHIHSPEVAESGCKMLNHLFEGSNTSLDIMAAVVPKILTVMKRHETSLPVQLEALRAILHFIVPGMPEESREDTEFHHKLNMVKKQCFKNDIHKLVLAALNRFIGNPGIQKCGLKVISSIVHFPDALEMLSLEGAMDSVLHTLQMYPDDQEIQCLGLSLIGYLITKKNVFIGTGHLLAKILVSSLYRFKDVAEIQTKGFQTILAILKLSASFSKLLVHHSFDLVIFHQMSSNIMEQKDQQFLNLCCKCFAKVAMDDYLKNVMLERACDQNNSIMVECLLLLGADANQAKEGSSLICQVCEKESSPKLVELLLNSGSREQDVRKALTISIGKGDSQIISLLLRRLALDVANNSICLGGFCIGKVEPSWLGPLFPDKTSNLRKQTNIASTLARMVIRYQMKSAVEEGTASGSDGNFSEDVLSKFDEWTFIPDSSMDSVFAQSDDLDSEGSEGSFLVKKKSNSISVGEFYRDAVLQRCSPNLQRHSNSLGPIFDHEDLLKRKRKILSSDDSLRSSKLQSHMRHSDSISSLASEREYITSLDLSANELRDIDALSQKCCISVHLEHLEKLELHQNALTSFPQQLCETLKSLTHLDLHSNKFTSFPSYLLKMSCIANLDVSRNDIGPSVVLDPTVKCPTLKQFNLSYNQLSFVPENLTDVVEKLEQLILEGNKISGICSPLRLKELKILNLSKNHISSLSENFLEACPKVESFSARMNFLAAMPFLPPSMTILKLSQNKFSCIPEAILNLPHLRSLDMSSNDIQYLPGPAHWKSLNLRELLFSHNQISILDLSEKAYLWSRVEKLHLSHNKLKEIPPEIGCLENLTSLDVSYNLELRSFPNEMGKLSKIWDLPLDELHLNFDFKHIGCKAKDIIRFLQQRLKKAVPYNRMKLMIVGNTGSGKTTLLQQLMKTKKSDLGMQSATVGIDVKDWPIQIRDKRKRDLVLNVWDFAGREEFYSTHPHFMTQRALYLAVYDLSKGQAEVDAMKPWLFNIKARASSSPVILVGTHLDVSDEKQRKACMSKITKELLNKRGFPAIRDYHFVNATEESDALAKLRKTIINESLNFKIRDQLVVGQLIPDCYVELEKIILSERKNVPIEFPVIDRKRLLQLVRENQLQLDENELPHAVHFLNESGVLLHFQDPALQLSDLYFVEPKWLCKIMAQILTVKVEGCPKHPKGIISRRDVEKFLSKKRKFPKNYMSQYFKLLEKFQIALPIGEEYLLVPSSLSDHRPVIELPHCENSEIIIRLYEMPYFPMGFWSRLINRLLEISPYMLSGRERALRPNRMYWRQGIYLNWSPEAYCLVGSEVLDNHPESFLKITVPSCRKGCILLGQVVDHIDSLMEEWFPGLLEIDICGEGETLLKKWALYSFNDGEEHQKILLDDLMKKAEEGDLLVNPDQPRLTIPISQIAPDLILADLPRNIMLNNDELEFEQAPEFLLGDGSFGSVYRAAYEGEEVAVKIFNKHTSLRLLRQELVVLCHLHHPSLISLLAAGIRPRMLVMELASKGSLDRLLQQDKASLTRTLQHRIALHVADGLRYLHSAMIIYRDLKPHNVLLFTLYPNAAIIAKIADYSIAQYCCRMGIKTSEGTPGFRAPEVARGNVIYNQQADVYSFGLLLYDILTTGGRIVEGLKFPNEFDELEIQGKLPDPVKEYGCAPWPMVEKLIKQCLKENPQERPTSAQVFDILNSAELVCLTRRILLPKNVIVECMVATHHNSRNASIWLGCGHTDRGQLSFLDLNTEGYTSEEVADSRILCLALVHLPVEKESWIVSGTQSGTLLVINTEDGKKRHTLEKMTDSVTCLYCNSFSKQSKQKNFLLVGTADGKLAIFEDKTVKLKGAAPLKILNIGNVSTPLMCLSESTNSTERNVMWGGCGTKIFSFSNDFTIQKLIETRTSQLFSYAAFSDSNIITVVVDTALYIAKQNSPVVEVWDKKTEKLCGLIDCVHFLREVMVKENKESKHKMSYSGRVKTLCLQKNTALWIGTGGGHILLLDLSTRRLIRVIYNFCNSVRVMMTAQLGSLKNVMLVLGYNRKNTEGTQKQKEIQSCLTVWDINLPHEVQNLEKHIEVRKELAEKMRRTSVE
T1 sequence (Q5S007 whole entry G2019S): as above

IC50 (LRRK2 G2019S enzyme) [nM]	IC50 [1] [nM]	SMILES
1.47	1.83	CCNc1nc(Nc2cn([C@H]3C[C@H]3C(N)=O)nc2C2CC2)ncc1C(F)(F)F (single isomer, unassigned) [Example 7, (1,2-cis)-2-(3-cyclopropyl-4-((4-(ethylamino)-5-(trifluoromethyl)pyrimidin-2-yl)amino)-1H-pyrazol-1-yl)cyclopropanecarboxamide]
1.41	11.8	CCNc1nc(Nc2cc([C@H]3C[C@H]3C(N)=O)nn2C2CC2)ncc1C(F)(F)F [Comparative Example A, reference compound]

— patent US12358896B2, “LRRK2 inhibitors and methods of making and using thereof” (DENALI THERAPEUTICS INC., priority 2019, dated 2025)
